“Also recorded” adds a separate entry of the source. Marks after values point to notes of the source that are not given here.
Legend:
M1 mAChR = conditions: cited from earlier work
healthy participants = test: 12-lead ECG / QTcF and concentration/QT analysis; assay type: in vivo, human; conditions: for QTcF: mean (SD)
Experimental: Safety and tolerability were assessed throughout the study via treatment emergent adverse event (TEAE) monitoring, vital signs (blood pressure, pulse rate, respiration rate, oral temperature), physical examinations, 12-lead ECGs, and clinical laboratory parameters including complete blood count (CBC), coagulation, hematology, clinical chemistry assessments, and urinalysis. Safety laboratory tests were drawn at pre-dose and at 5, 24, 36 and 144-hours post-dose for 60–400 mg Cohorts; and at 24, 48, 72 and 144-hours post-dose for the 600 mg and Food Effect Cohort. ECG assessments were conducted at pre-dose and at 1, 2, 3, 5, 9, 24, 36 and 144-hours post-dose for 60–400 mg Cohorts; and at 2, 3, 5, 9, 24, 36, 72 and 144-hours post-dose for the 600 mg and Food Effect Cohort. All adverse events (AEs) were assessed by the investigator for severity and relationship to study medication or study procedures.
All AEs were coded using the Medical Dictionary for Regulatory Activities (MedDRA) version 22.0. All AEs were listed, and the emergence of TEAEs were categorized by body system affected and analyzed to determine whether they were related to treatment. Analysis of TEAEs for VU319 vs. Placebo were completed using Fisher’s Exact Test. Assessment of the grade of toxicity or relation to the study drug for each adverse event was determined by the Investigator. Changes in vital signs, physical examination, and laboratory tests were collected. Changes in vital signs from pre-dose to 48 h post-dose were placed into 10-time bins and assessed using mixed-measures ANOVA with the time bins as the within-subjects factor and dose as the between-subjects factor. To assess changes is QT analyses with respect to VU319 concentration, we calculated the maximal change in QTcF from baseline for each participant. We assessed the relationship between these maximal changes from baseline with the participant’s Cmax using Pearson correlations. Outlier QTcF values (> 450 ms) were also assessed against PK concentrations to examine it there was any relationship using Pearson correlations. Analyses of safety data was completed by SAS version 9.4.

Compound: Cn1cc2c(-c3cc(F)c(CN4Cc5ncccc5C4=O)c(F)c3)cccc2n1 [VU319]
- agonist properties at M1 (M1 mAChR): devoid of agonist properties; also recorded: lack of direct orthosteric agonism of M1 receptors
- QTcF (healthy participants; Food effect study, 120 mg Fasted, +2 hour): 405.0 (22.7)
- QTcF (healthy participants; Food effect study, 120 mg Fasted, +3 hour): 405.9 (19.13)
- QTcF (healthy participants; Food effect study, 120 mg Fasted, +5 hour): 406.4 (18.05)
- QTcF (healthy participants; Food effect study, 120 mg Fasted, +9 hour): 405.5 (14.4)
- QTcF (healthy participants; Food effect study, 120 mg Fasted, +24 hour): 401.2 (19.21)
- QTcF (healthy participants; Food effect study, 120 mg Fasted, +36 hour): 405.2 (23.74)
- QTcF (healthy participants; Food effect study, 120 mg Fasted, +72 hour): 403.2 (16.39)
- QTcF (healthy participants; Food effect study, 120 mg Fasted, +144 hour): 405.1 (19.72)
- QTcF (healthy participants; Food effect study, 120 mg Fasted, Baseline): 408.9 (20.1)
- QTcF (healthy participants; Food effect study, 120 mg Fed, +2 hour): 399.2 (19.09)
- QTcF (healthy participants; Food effect study, 120 mg Fed, +3 hour): 402.3 (24.08)
- QTcF (healthy participants; Food effect study, 120 mg Fed, +5 hour): 405.0 (16.01)
- QTcF (healthy participants; Food effect study, 120 mg Fed, +9 hour): 402.5 (19.51)
- QTcF (healthy participants; Food effect study, 120 mg Fed, +24 hour): 403.0 (16.89)
- QTcF (healthy participants; Food effect study, 120 mg Fed, +36 hour): 399.5 (21.91)
- QTcF (healthy participants; Food effect study, 120 mg Fed, +72 hour, n = 9, in ms): 402.7 (17.38)^#
- QTcF (healthy participants; Food effect study, 120 mg Fed, +144 hour): 403.6 (24.86)
- QTcF (healthy participants; Food effect study, 120 mg Fed, Baseline): 406.7 (21.7)
- QT intervals, effect of dose (healthy participants; SAD study): no significant dose-by-time interactions or main effects of dose group
- QTcF (healthy participants; SAD study, 60 mg, +1 hour): 411.0 (11.82)
- QTcF (healthy participants; SAD study, 60 mg, +2 hour): 414.8 (18.13)
- QTcF (healthy participants; SAD study, 60 mg, +3 hour): 412.8 (23.01)
- QTcF (healthy participants; SAD study, 60 mg, +5 hour): 417.2 (19.47)
- QTcF (healthy participants; SAD study, 60 mg, +9 hour): 411.3 (21.31)
- QTcF (healthy participants; SAD study, 60 mg, +24 hour): 408.7 (8.52)
- QTcF (healthy participants; SAD study, 60 mg, +36 hour, n = 5): 410.6 (10.5)*
- QTcF (healthy participants; SAD study, 60 mg, +144 hour): 415.5 (7.66)
- QTcF (healthy participants; SAD study, 60 mg, Baseline): 418.0 (17.1)
- QTcF (healthy participants; SAD study, 120 mg, +1 hour): 409.7 (15.34)
- QTcF (healthy participants; SAD study, 120 mg, +2 hour): 407.0 (21.02)
- QTcF (healthy participants; SAD study, 120 mg, +3 hour): 412.7 (20.02)
- QTcF (healthy participants; SAD study, 120 mg, +5 hour): 406.8 (15.5)
- QTcF (healthy participants; SAD study, 120 mg, +9 hour): 409.2 (16.68)
- QTcF (healthy participants; SAD study, 120 mg, +24 hour): 408.3 (12.64)
- QTcF (healthy participants; SAD study, 120 mg, +36 hour): 408.0 (18.17)
- QTcF (healthy participants; SAD study, 120 mg, +144 hour): 406.7 (17.95)
- QTcF (healthy participants; SAD study, 120 mg, Baseline): 406.0 (12.23)
- QTcF (healthy participants; SAD study, 240 mg, +1 hour): 422.7 (22.05)
- QTcF (healthy participants; SAD study, 240 mg, +2 hour): 415.5 (28.46)
- QTcF (healthy participants; SAD study, 240 mg, +3 hour): 421.7 (19.48)
- QTcF (healthy participants; SAD study, 240 mg, +5 hour): 414.8 (24.28)
- QTcF (healthy participants; SAD study, 240 mg, +9 hour): 421.0 (15.03)
- QTcF (healthy participants; SAD study, 240 mg, +24 hour): 415.2 (16.22)
- QTcF (healthy participants; SAD study, 240 mg, +36 hour): 418.2 (24.29)
- QTcF (healthy participants; SAD study, 240 mg, +144 hour): 422.8 (12.32)
- QTcF (healthy participants; SAD study, 240 mg, Baseline): 426.0 (33.22)
- QTcF (healthy participants; SAD study, 400 mg, +1 hour): 405.3 (24.45)
- QTcF (healthy participants; SAD study, 400 mg, +2 hour): 405.0 (26.62)
- QTcF (healthy participants; SAD study, 400 mg, +3 hour): 405.3 (25.65)
- QTcF (healthy participants; SAD study, 400 mg, +5 hour): 405.2 (27.72)
- QTcF (healthy participants; SAD study, 400 mg, +9 hour): 400.7 (23.41)
- QTcF (healthy participants; SAD study, 400 mg, +24 hour): 400.7 (17.13)
- QTcF (healthy participants; SAD study, 400 mg, +36 hour): 404.5 (20.16)
- QTcF (healthy participants; SAD study, 400 mg, +144 hour): 410.5 (10.21)
- QTcF (healthy participants; SAD study, 400 mg, Baseline): 401.8 (24.13)
- QTcF (healthy participants; SAD study, 600 mg, +2 hour): 419.7 (27.65)
- QTcF (healthy participants; SAD study, 600 mg, +3 hour): 419.5 (31.48)
- QTcF (healthy participants; SAD study, 600 mg, +5 hour): 413.8 (23.37)
- QTcF (healthy participants; SAD study, 600 mg, +9 hour): 413.8 (26.54)
- QTcF (healthy participants; SAD study, 600 mg, +24 hour): 408.0 (17.38)
- QTcF (healthy participants; SAD study, 600 mg, +36 hour): 418.2 (24.79)
- QTcF (healthy participants; SAD study, 600 mg, +72 hour): 413.3 (19.22)
- QTcF (healthy participants; SAD study, 600 mg, +144 hour): 415.7 (23.99)
- QTcF (healthy participants; SAD study, 600 mg, Baseline): 416.0 (25.35)
- relationship between change in QTcF from baseline and Cmax (healthy participants; SAD study, p > 0.6): did not show a significant relationship
- relationship between change in QTcF from baseline and Cmax (healthy participants; food effect study, Fasted p > 0.4, Fed p > 0.5): did not show a significant relationship
